# In PubChem BioAssay AID1996:
# Conditions: buffer; pH 7.4; 200.0 µM
row,Compound,solubility kinetic
1,O=C(O)c1cc(C(=O)O)cc(N2C(=O)CSC2=S)c1,> 44.6 µg/mL
2,Oc1c(Cl)cc(Cl)c2c1NCCC2,7 µg/mL
3,CCOC(=O)CCCCNC(=O)Nc1ccccc1,> 39.6 µg/mL
4,CN(CCC1CCOCC1)Cc1nc(Cc2ccccc2F)no1,> 50 µg/mL
5,O=Cc1c(NCc2cccc(F)c2)c2ccccc2[nH]c1=O,19.8 µg/mL
6,CCOC(=O)C1(Cc2cccc(F)c2)CCN(CC2CC2)CC1,> 47.9 µg/mL
7,CN1CCN(c2cc(C(F)(F)F)nc3ccc(F)cc23)CC1,43.5 µg/mL
8,COc1ccc(S(=O)(=O)Nc2cccnc2)cc1,> 39.6 µg/mL
9,CCOC(=O)Cc1csc(NS(=O)(=O)c2ccc([N+](=O)[O-])cc2)n1,> 55.7 µg/mL
10,COC(=O)NC(=C(Cl)Cl)P(=O)(c1ccccc1)c1ccccc1,> 55.5 µg/mL
11,CC(C)CCNC(=O)c1ccc2c(c1)ncn2C1CCCC1,> 44.9 µg/mL
12,O=C(CN1C(=O)c2ccccc2C1=O)NCc1ccc(C(=O)O)cc1,> 50.7 µg/mL
13,O=C(CSc1nc2ncc(Cl)cc2[nH]1)N1CCOCC1,> 46.9 µg/mL
14,COc1cccc(CNCc2ccco2)c1O.O=C(O)C(=O)O,> 48.5 µg/mL
15,CCC(=O)c1c[nH]c(C(=O)NCc2cccc(C(F)(F)F)c2)c1,< 0.4 µg/mL
16,COc1cccc(NC(=O)c2ccc3c(c2)CCN3S(C)(=O)=O)c1,> 52 µg/mL
17,Cc1cc(Cl)c2ccc(Cl)cc2n1,< 0.5 µg/mL
18,COc1ccc(CN2CCc3ccccc3C2)cc1Br,11.3 µg/mL
19,COc1ccccc1NC(=O)c1ccc[n+]([O-])c1,> 36.6 µg/mL
20,CC(C)C(NC(=O)c1ccccc1F)C(=O)Nc1nccs1 (stereo not drawn),48.2 µg/mL
21,CCCOc1ccccc1/C=C(\C#N)C(=O)Nc1cccc(C)n1,5.1 µg/mL
22,N#Cc1c(-c2cccnc2)c2c([nH]c1=O)-c1ccccc1OC2,> 45.2 µg/mL
23,COc1ccc(NS(=O)(=O)c2ccc3oc(=S)[nH]c3c2)cc1,> 50.5 µg/mL
24,CN(CC(=O)Nc1ccc(F)cc1)C(=O)Cc1ccsc1,> 46 µg/mL

row,Compound,solubility kinetic
1,O=c1[nH]c(N2CCOCC2)nc2ccccc12,> 34.7 µg/mL
2,CN1C(=S)SC2CS(=O)(=O)CC21 (stereo not drawn),> 33.5 µg/mL
3,CC(=O)Nc1ccc(Cl)c(-c2nc3ncccc3o2)c1,41.5 µg/mL
4,CNC(=O)Nc1ccccc1C(=O)Nc1ccccc1,> 40.4 µg/mL
5,CC(O)c1nc2ccccc2n1CCCOc1ccccc1 (stereo not drawn),> 44.5 µg/mL
6,COc1cc(C(=O)OCC(C)=O)cc(NC(=O)c2ccco2)c1OC,2.4 µg/mL
7,CSc1ccc(CN(C)CC(=O)NCCc2ccccc2)cc1,> 49.3 µg/mL
8,CC(C)CNC(=O)c1ccc2c(c1)C(=O)N(Cc1ccco1)C2=O,25.9 µg/mL
9,CCc1noc(C)c1C(=O)NCCc1ccc(S(N)(=O)=O)cc1,> 50.6 µg/mL
10,Cc1ccc(NC(=O)CSc2nc(C)c(C)c(C)n2)cc1S(=O)(=O)N1CCOCC1,4.2 µg/mL
11,O=C(Nc1ccccn1)c1ccc(-c2ccccc2)cc1,0.9 µg/mL
12,COc1ccc(Cl)c(OC)c1C(=O)NC(=O)Nc1nc(C)nc(C)n1,51.4 µg/mL
13,O=C(NC1CC1)c1cc(Cl)nc2ccccc12,> 37 µg/mL
14,CN(C(=O)COC(=O)c1ccc(C#N)cc1)c1ccccc1,19.4 µg/mL
15,O=C(c1ccccc1)N1CCCCC(Cl)C1=O (stereo not drawn),> 37.8 µg/mL
16,Cc1cc(NC(=O)CSc2ccnc(=O)[nH]2)no1,> 39.9 µg/mL
17,CCNC(=O)COC(=O)CCNC(=O)c1ccc(Cl)cc1,> 46.9 µg/mL
18,O=C(c1cc(-c2ccc(O)cc2)on1)N1CCOCC1,> 41.1 µg/mL
19,COC(=O)c1c(C)[nH]c(C(=O)/C=C/c2ccccc2F)c1C,0.8 µg/mL
20,CC(O)c1ccc(OCCN(C)c2ccccn2)cc1 (stereo not drawn),> 40.9 µg/mL
21,Cc1ccc(NC(=O)Nc2ccon2)cc1,> 32.6 µg/mL
22,O=C(NC(=S)NCCc1ccccc1)c1cccc(Cl)c1,0.6 µg/mL
23,Cc1ccc(NC(=O)CN2C(=O)C3CC=C(Cl)CC3C2=O)cc1 (stereo not drawn),> 49.9 µg/mL
24,Cn1cc(C(=O)C(=O)N2CCCC2)c2ccccc21,> 38.4 µg/mL

row,Compound,solubility kinetic
1,O=C(O)CCCCNS(=O)(=O)/C=C/c1ccccc1,> 42.5 µg/mL
2,O=C1NC2=C(C(=O)CCC2)C(c2ccccc2[N+](=O)[O-])N1 (stereo not drawn),> 43.1 µg/mL
3,COc1ccc(C(=O)NC2CC3CCCC(C2)N3CC(C)C)cc1 (stereo not drawn),> 49.6 µg/mL
4,O=C(NCc1ccc(F)cc1)c1ccc(Br)o1,37.9 µg/mL
5,O=C(O)CN1c2cccc3cccc(c23)S1(=O)=O,38.2 µg/mL
6,Nc1cc(Cl)ccc1Nc1ccncc1,> 33 µg/mL
7,CSc1nc(N2CCN(C)CC2)c2c(c1C#N)CC(C)(C)OC2,> 49.9 µg/mL
8,COc1ccc(C(=O)OC(C)CN2CCN(C)CC2)cc1.Cl (stereo not drawn),> 49.3 µg/mL
9,CC(=O)Nc1ccc(S(=O)(=O)Nc2cc(Cl)ccc2N2CCOCC2)cc1,> 61.5 µg/mL
10,O=C(NCCc1ccc(Cl)cc1)c1cc(=O)[nH]c2ccccc12,2.4 µg/mL
11,CC(=O)N/C(=C\c1ccccc1)C(=O)OCC(=O)NC1CCS(=O)(=O)C1 (stereo not drawn),> 57.1 µg/mL
12,Cn1cc2cc(NC(N)=S)ccc2n1,> 30.9 µg/mL
13,CCc1c(O)c(-c2ccccc2)c(=O)n(-c2ccccn2)c1-c1ccccc1,> 55.3 µg/mL
14,CCN(CC(=O)NC(=O)NCc1ccccc1)Cc1ccccc1,40.9 µg/mL
15,COc1ccc(C(=O)NCC(=O)NCc2ccncc2)cc1,> 44.9 µg/mL
16,COc1ccc(C(C)=O)cc1COc1cccc2cccnc12,15.7 µg/mL
17,CCOC(=O)c1sc(=NC(=O)c2ccc(OC(C)C)cc2)n(C)c1C,< 0.4 µg/mL
18,Cc1[nH]c2ccccc2c1C(=O)CN1C(=O)C(=O)N(C2CCCC2)C1=O,3.2 µg/mL
19,O=C(c1cc2ccccc2o1)N1CC=C(c2ccccc2)CC1,5.1 µg/mL
20,Clc1nc2c(ccc3ccccc32)[nH]1,> 30.4 µg/mL
21,CCOc1ccc2[nH]c3c(NCCCOC)ncnc3c2c1,36.4 µg/mL
22,CC(C)c1c(O)nc(SCCOc2ccc(Cl)cc2)[nH]c1=O,44.7 µg/mL
23,CC(=O)Nc1ccc(S(=O)(=O)Nc2nccs2)cc1,> 44.6 µg/mL
24,O=C(Nc1ccc(Cl)cc1F)c1cccc2ccccc12,1 µg/mL

row,Compound,solubility kinetic
1,CC(C)[C@H](NC(=O)c1ccccc1F)C(=O)NC1CCCCC1,> 48.1 µg/mL
2,COc1ccc(CCN2CC(C(=O)NCC(c3ccccc3)N(C)C)CC2=O)cc1OC (stereo not drawn),> 65.9 µg/mL
3,O=C(CN1CCCCC1)NNC(=O)c1ccc([N+](=O)[O-])cc1,> 45.9 µg/mL
4,O=C(O)c1c(NC(=O)N2CCCC2)sc2c1CCCC2,> 44.2 µg/mL
5,Cc1ccc(C(=O)O)cc1NC(=O)C1CCN(S(=O)(=O)c2ccc3c(c2)OCCO3)CC1,> 69.1 µg/mL
6,CC(C)(C)NC(=O)CN(C(=O)C1CSC(=O)C1)c1ccccc1F (stereo not drawn),33.3 µg/mL
7,CCOC(=O)CCNCc1ccc(OC)c(OC)c1.Cl,> 45.6 µg/mL
8,COc1ccccc1CNC(=O)Cn1cc([N+](=O)[O-])ccc1=O,> 47.6 µg/mL
9,COCCCNc1nc(-c2ccc(Cl)cc2)nc2ccccc12,4.3 µg/mL
10,O=C(NC(=S)Nc1cccc([N+](=O)[O-])c1)C1CCCC1,2.6 µg/mL
11,CCCCC(=O)Nc1ccc(NCc2ccc(C)s2)cc1,16 µg/mL
12,CC(C)NC(=O)c1ccc2c(c1)N(CC(=O)N1CCCCC1)C(=O)C(C)(C)O2,44.8 µg/mL
13,CC(CC(=O)OCC(=O)NC1CCS(=O)(=O)C1)c1ccccc1 (stereo not drawn),> 50.9 µg/mL
14,COc1ccc(CNC(=O)COc2cccnc2[N+](=O)[O-])cc1,> 47.6 µg/mL
15,Cc1ccc([N+](=O)[O-])c(OCC(O)CNC(C)(C)C)c1.Cl (stereo not drawn),> 47.8 µg/mL
16,COc1cc(/C=C(\NC(C)=O)C(=O)N2CCCCC2)ccc1OC(C)=O,47.7 µg/mL
17,COc1ccc(C(=O)Nc2cccc(OC(=O)c3ccco3)c2)cc1,3.2 µg/mL
18,Cc1ccc(CC(=O)Nc2cc(C)ccn2)cc1,> 36 µg/mL
19,Cc1cnc(NC(=O)Cc2ccc(Br)cc2)s1,< 0.3 µg/mL
20,COc1ccc(C(=O)Nc2ccc(C3CC3(Cl)Cl)cc2)cc1 (stereo not drawn),< 0.7 µg/mL
21,CCCCCC1CC(CC(=O)Nc2ccc([N+](=O)[O-])cc2)OC1=O (stereo not drawn),0.5 µg/mL
22,O=C(/C=C/c1ccc([N+](=O)[O-])cc1)/C=C/c1ccco1,3.1 µg/mL
23,CN1CCCC(OC(=O)c2cc(F)c(F)c(F)c2F)C1.Cl (stereo not drawn),45.4 µg/mL
24,Cc1ccc(S(=O)(=O)NCCC2=CCCCC2)cc1C(N)=O,> 48.4 µg/mL

row,Compound,solubility kinetic
1,CN(C)C(=S)Nc1cccc(C(F)(F)F)c1,29.7 µg/mL
2,COc1ccc(/C=N/NC(=O)c2ccc3nc[nH]c3c2)cc1,> 44.1 µg/mL
3,CN(C(=O)c1ccccc1)c1nccnc1C#N,> 35.7 µg/mL
4,CCC(C(=O)NCCc1ccccc1)c1ccccc1 (stereo not drawn),> 40.1 µg/mL
5,COC(c1ccccc1)(c1ccccc1)C(Oc1nc(C)cc(C)n1)C(=O)O (stereo not drawn),> 56.8 µg/mL
6,COc1ccc(CN(C)C(=O)c2ccc3ccccc3n2)cc1F,> 48.7 µg/mL
7,NC(=O)c1cc(-c2cccnc2)nc2ccc(Br)cc12,2.2 µg/mL
8,CN1CCN(c2ccc(NC(=O)c3cc4ccccc4o3)cc2)CC1,19.6 µg/mL
9,CNC(=S)N(Cc1ccccc1)Cc1cccnc1,39 µg/mL
10,O=C(OCc1cccc(C(F)(F)F)c1)c1ccc[nH]c1=O,> 44.6 µg/mL
11,O=C(COC(=O)[C@@H]1CC(O)CN1S(=O)(=O)c1ccc(Cl)c(Cl)c1)NC(=O)NCc1ccccc1 (stereo partly drawn),66.7 µg/mL
12,COc1cc(N)c(Cl)cc1C(=O)OCC(=O)NCC1CCCCC1,4.8 µg/mL
13,CCCCc1nnc(SCC(=O)Nc2nccs2)n1CC,> 48.8 µg/mL
14,O=C(COC(=O)C1CC(=O)N(Cc2ccco2)C1)Nc1nc(-c2ccc(F)cc2)cs1 (stereo not drawn),16.9 µg/mL
15,O=C(CSc1nccc(=O)[nH]1)Nc1ccc2c(c1)OCCO2,40.8 µg/mL
16,O=C(NCCc1cccc(Cl)c1)c1cc2ccccc2oc1=O,< 0.7 µg/mL
17,Cl.O=C(CN1CCCCC1)c1ccc(F)cc1,> 38.7 µg/mL
18,CC1(C2CC2)NC(=O)N(CC(=O)NCC(=O)Nc2ccc(F)c(F)c2F)C1=O (stereo not drawn),> 59.8 µg/mL
19,O=C(COC(=O)c1ccc(C(F)(F)F)cc1)Nc1cccc(S(=O)(=O)NC2=NCCCCC2)c1,10.5 µg/mL
20,CNCc1cc(Cl)cc(OC)c1OC(C)C.Cl,> 42 µg/mL
21,CCN(CC)c1ccc(C(=O)OCC(=O)Nc2cc(C)on2)cc1,4.6 µg/mL
22,NS(=O)(=O)c1ccc(CNC(=S)NC2CCCC2)cc1,46.9 µg/mL
